Test results from patent publication US10195190B2, “Local delivery forms of acriflavine for treating tumors” (The Johns Hopkins University, priority 2015, dated 2019).

Legend:
[1] = system: 9 L gliosarcoma; assay: Survival of F344 rats intracranially implanted with 9 L gliosarcoma; type: in vivo, rat; details: for median survival: systemic treatment (ACF 5 mg/kg/daily from Day 0 or Day 5; oral temozolomide 50 mg/kg/day Days 5-9)
[2] = system: 9 L rat gliosarcoma cells; assay: Acriflavine cytotoxicity in vitro, CCK-8 assay, 9 L cells; type: cell-based; details: 9 L rat glioma cells, 24 h co-incubation, read-out: IC50 concentration, cell viability
Protocol: (§1) The cytotoxicity of ACF was analyzed in rodent 9 L gliosarcoma (obtained from the Brain Tumor Research Center, University of California at San Francisco) and F98 glioma (a gift from R. Barth, Ohio State University) cell lines as well as in commercial and primary human glioblastoma cell lines, U87 (ATCC) and GB1A, respectively. The cells were plated in 96-well plates at a density of 4×10^3 cells/well, cultured for 24 h and treated with ACF (concentration range of 0.2 μM-25 μM). After co-incubation with ACF in medium for 24 h, cell growth was assessed using a CCK-8 assay (Dojindo, Kumamoto, Japan) according to manufacturers' protocol. Data are shown as mean+/−SEM and the inhibitory concentration 50% (IC50)+95% confidence interval and R^2 are reported.
(§2) The following concentrations of acriflavine: 0.0249 μM, 0.1245 μM, 0.249 μM, 2.5 μM, 25 μM, 50 μM, 500 μM, and 1000 μM were tested. CCK-8 assay was added to the wells, and the optical density was read at 450 nm by a microplate reader.

[3] = system: glioma cell lines (9 L gliosarcoma, F98 glioma, U87, GB1A); assay: Acriflavine cytotoxicity in vitro, CCK-8 assay, all glioma cell lines tested; type: cell-based, rodent and human; details: 24 h
Protocol: as §1, §2

For `Cn1nnc2c(C(N)=O)ncn2c1=O` [temozolomide, Temozolomide], the median survival [1] was 28 days.

With “3,6-diamino-10-methylacridinium chloride mixed with 3,6-acridinediamine [ACF]” the IC50 [2] was 1.07 µM, the inhibition of proliferation [3] was “inhibited proliferation in all glioma cell lines tested in a dose-dependent manner” and the “survival benefit compared to the control” value ([1]; systemic ACF started on Day 0 or Day 5) was “no benefit in survival”. The median survival [1] was 14 days.
